These results are taken from EP1616965A1, “Methods and assays for detecting guanylate cyclase activity” (AXXAM S.r.l., priority 2004, dated 2006).

The assay has as its target T1, soluble guanylate cyclase (sGC) (Rattus norvegicus, UniProt P19686+P20595, C541D/E473K/R592Q).
T1 construct: To reconstitute the full length mutated gene, these three discrete fragments were used as template in a final PCR reaction; expressed in transfected cells
T1 sequence (P19686 1-690 R592Q): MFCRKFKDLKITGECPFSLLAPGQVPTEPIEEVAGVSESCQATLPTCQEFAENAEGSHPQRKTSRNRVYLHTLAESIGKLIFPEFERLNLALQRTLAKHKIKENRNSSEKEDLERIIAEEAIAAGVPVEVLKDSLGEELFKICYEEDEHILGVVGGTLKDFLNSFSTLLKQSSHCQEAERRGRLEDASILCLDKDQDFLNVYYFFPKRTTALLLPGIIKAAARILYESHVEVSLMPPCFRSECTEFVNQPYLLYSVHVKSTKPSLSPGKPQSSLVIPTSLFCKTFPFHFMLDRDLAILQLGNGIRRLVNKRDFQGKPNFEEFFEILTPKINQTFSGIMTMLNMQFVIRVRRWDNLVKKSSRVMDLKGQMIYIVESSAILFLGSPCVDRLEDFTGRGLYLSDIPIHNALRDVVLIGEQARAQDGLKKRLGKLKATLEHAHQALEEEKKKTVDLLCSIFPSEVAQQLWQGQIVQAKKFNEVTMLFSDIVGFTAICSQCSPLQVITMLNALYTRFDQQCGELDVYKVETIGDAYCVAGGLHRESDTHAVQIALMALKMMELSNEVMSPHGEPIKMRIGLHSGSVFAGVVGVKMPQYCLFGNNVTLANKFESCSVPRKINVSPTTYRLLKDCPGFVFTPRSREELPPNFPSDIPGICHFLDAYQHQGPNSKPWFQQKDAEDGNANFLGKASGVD
T1 sequence (P20595 1-619 E473K/C541D): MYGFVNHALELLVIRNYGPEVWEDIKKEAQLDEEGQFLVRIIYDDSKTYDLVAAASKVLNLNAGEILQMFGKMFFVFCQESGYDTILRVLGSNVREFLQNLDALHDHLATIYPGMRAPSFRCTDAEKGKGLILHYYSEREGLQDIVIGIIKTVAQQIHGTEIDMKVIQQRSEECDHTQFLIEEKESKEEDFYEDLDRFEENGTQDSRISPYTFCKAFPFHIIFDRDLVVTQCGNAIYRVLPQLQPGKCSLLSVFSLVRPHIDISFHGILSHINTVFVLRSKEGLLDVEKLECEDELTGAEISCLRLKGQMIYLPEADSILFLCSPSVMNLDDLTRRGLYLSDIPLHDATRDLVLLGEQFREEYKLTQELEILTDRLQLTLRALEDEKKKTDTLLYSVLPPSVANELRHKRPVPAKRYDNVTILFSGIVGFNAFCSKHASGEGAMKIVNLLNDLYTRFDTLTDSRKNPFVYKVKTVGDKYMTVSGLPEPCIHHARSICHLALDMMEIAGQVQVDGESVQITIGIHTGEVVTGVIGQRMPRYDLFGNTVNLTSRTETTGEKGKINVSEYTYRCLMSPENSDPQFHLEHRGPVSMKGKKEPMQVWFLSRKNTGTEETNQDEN
Briefly: MRE-CRE luciferase reporter assay in CHO cAMPL cells expressing mutated sGC (clone 7). The format is cell-based. The note with it: dose response of BAY41-2272 in the absence or presence of ODQ (300 nM, 3 µM, 30 µM); 384 wp, Tyrode buffer. The protocol: According to the invention, the sGC enzymatic activity is determined by coupling a sGC enzyme with modified substrate specificity to a cAMP sensitive reporter construct in a suitable eukaryotic or prokaryotic cell, whereby the activity of the reporter gene is indicative of the sGC enzymatic activity. The sGC enzyme with modified substrate specificity is able to catalyze the conversion of ATP into cyclic AMP without affecting the allosteric regulation of the natural enzyme. The sGC substrate specificity can be modified by replacing the amino acid residues involved in nucleotide binding with the corresponding residues present in the active site of adenylate cyclase. For example, when rat sGC is used, the amino acids Arg592 of α subunit, Glu473 and Cys541 of β subunit are respectively changed into Gln, Lys and Asp, to confer ATP substrate-specificity. More details on the modification of sGC substrate specificity can be found in Sunahara et al. (1998), which is hereby incorporated by reference.
Rat wild type sGC […] and β1 subunits were amplified from brain cDNA by RT-PCR and used as templates for site directed mutagenesis. […]
1500 c/w were seeded in 384 wp. […] Luciferase activity was detected after injection of 25ul Bright-GloTM (Promega) at the CCD camera (60" measurement, high sensitivity). […]

With `O=c1onc2cnc3ccccc3n12` [ODQ], the “Inhibition of BAY41-2272 activity by ODQ” value is listed as “BAY41-2272 stimulating effect on sGC is competed by ODQ”.
